Reference: ChEMBL document CHEMBL2029243, “Potent and selective pyrazolo[1,5-a]pyrimidine based inhibitors of B-Raf(V600E) kinase with favorable physicochemical and pharmacokinetic properties” (Bioorg Med Chem Lett, 2012)
Converted amounts (≈) assume the structure as drawn.

Columns and labels:
[1] = Aqueous solubility of the compound at pH 1.2; assay type: physicochemical; conditions: buffer
[2] = Volume of distribution in mouse at […], iv and 30 mg/kg, po; assay type: ADME, organism-based; conditions: in vivo
[3] = AUC in mouse at 30 mg/kg, po administered with 1% methylcellulose/0.5% Tween 80 in water; assay type: ADME, organism-based; set-up: dose 30 mg/kg, route oral; conditions: in vivo
[4] = AUC in mouse at 30 mg/kg, po administered with 40/10/50 volume of PEG400/EtOH/H2O solution; assay type: ADME, organism-based; set-up: dose 30 mg/kg, route oral; conditions: plasma
[5] = target: T1, Serine/threonine-protein kinase B-raf (Homo sapiens, UniProt P15056, V600E)
[6] = Clearance in mouse at […], iv; assay type: ADME, organism-based; set-up: dose 2.5 mg/kg, route intravenous; conditions: in vivo
[7] = target: T1, Serine/threonine-protein kinase B-raf; remark: listed apart in the source
[8] = physchem; conditions: buffer, pH 7.4
Description: Aqueous solubility of the compound at pH 7.4

[9] = in vitro; conditions: human, Caco-2
Description: Permeability across human Caco2 cells

[10] = physchem; conditions: buffer, pH 6.5
Description: Aqueous solubility of the compound at pH 6.5

[11] = Oral bioavailability in mouse at 30 mg/kg; assay type: ADME, organism-based; conditions: in vivo

T1 sequence (P15056 2-766 V600E limits assumed): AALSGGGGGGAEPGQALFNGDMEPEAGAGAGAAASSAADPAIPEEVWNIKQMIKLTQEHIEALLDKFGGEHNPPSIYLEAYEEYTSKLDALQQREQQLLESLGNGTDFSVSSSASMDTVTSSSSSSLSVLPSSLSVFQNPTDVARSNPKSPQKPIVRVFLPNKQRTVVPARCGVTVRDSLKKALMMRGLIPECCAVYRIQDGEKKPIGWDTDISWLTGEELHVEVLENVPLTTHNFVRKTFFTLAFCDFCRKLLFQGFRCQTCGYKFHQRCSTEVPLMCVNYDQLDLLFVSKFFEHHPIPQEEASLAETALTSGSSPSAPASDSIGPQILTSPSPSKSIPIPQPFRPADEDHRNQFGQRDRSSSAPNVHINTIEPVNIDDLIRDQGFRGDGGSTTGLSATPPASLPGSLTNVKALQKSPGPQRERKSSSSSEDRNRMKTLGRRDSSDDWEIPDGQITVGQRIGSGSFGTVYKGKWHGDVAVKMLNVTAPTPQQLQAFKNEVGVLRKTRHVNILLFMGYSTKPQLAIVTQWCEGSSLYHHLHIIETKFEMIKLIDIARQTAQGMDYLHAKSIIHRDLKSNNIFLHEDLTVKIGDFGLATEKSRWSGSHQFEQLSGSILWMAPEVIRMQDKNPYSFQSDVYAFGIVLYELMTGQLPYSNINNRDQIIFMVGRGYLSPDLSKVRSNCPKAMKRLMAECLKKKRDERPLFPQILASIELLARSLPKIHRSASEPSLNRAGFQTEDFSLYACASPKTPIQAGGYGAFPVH

IC50 [5] | IC50 [7] | Structure (SMILES) | further results
464 nM | 1380 nM | CCCS(=O)(=O)Nc1ccc(F)c(C(=O)Nc2cnc3ccccc3c2)c1F | 
> 10000 nM |  | CCCS(=O)(=O)Nc1ccc(F)c(C(=O)Nc2cnc3occc3c2)c1F | 
> 10000 nM |  | CCCS(=O)(=O)Nc1ccc(F)c(C(=O)Nc2cnc3nccn3c2)c1F | 
407 nM | 1510 nM | CCCS(=O)(=O)Nc1ccc(F)c(C(=O)Nc2cnc3cc[nH]c3c2)c1F | 
247 nM | 488 nM | CCCS(=O)(=O)Nc1ccc(F)c(C(=O)Nc2cnc3ccnn3c2)c1F | 
131 nM | 248 nM | CCCS(=O)(=O)Nc1ccc(F)c(C(=O)Nc2cnc3cc(C)nn3c2)c1F | 
105 nM | 228 nM | CCCS(=O)(=O)Nc1ccc(F)c(C(=O)Nc2cnc3cc(CC)nn3c2)c1F | 
124 nM | 299 nM | CCCS(=O)(=O)Nc1ccc(F)c(C(=O)Nc2cnc3cc(C4CC4)nn3c2)c1F | 
128 nM | 448 nM | CCCS(=O)(=O)Nc1ccc(F)c(C(=O)Nc2cnc3cc(C4CCCC4)nn3c2)c1F | 
126 nM | 374 nM | CCCS(=O)(=O)Nc1ccc(F)c(C(=O)Nc2cnc3cc(C(F)(F)F)nn3c2)c1F | 
129 nM | 382 nM | CCCS(=O)(=O)Nc1ccc(F)c(C(=O)Nc2cnc3cc(NC)nn3c2)c1F | 
190 nM | 395 nM | CCCS(=O)(=O)Nc1ccc(F)c(C(=O)Nc2cnc3cc(NC(C)C)nn3c2)c1F | 
 | 664 nM | CCCS(=O)(=O)Nc1ccc(F)c(C(=O)Nc2cnc3cc(N4CCCC4)nn3c2)c1F | 
174 nM | 315 nM | CCCS(=O)(=O)Nc1ccc(F)c(C(=O)Nc2cnc3cc(N4CCOCC4)nn3c2)c1F | 
43 nM | 68 nM | CCCS(=O)(=O)Nc1ccc(F)c(C(=O)Nc2cnc3cc(OC)nn3c2)c1F | solubility [1]: 18 µg/mL (≈ 42.3 µM); Vd [2]: 0.16 L/kg; AUC [3]: 844 µM·h; AUC [4]: 733 µM·h; solubility [8]: 32 µg/mL (≈ 75.2 µM); clearance [6]: 1 mL/min/kg; Papp [9]: 2 ×10⁻⁶ cm/s; solubility [10]: 21 µg/mL (≈ 49.4 µM); bioavailability [11]: 98%
83 nM | 205 nM | CCCS(=O)(=O)Nc1ccc(F)c(C(=O)Nc2cnc3cc(OCC)nn3c2)c1F | 
149 nM | 449 nM | CCCS(=O)(=O)Nc1ccc(F)c(C(=O)Nc2cnc3cc(OC(C)C)nn3c2)c1F | 
67 nM | 110 nM | CCCS(=O)(=O)Nc1ccc(F)c(C(=O)Nc2cnc3cc(OCCOC)nn3c2)c1F | 
19 nM | 60 nM | CCCS(=O)(=O)Nc1ccc(F)c(C(=O)Nc2cnc3cc(-c4cccc(F)c4)nn3c2)c1F | 
11 nM | 54 nM | CCCS(=O)(=O)Nc1ccc(F)c(C(=O)Nc2cnc3cc(-c4ccc(F)cc4)nn3c2)c1F | 
13 nM | 27 nM | CCCS(=O)(=O)Nc1ccc(F)c(C(=O)Nc2cnc3cc(-c4cccnc4)nn3c2)c1F | 
13 nM | 48 nM | CCCS(=O)(=O)Nc1ccc(F)c(C(=O)Nc2cnc3cc(-c4cnn(C)c4)nn3c2)c1F | 

Structure (SMILES) | IC50 [5] | IC50 [7] | further results
CCCS(=O)(=O)Nc1ccc(F)c(C(=O)Nc2cnc3[nH]nc(OC)c3c2)c1F | 5 nM |  | solubility [1]: 3 µg/mL (≈ 7.05 µM); Vd [2]: 0.11 L/kg; AUC [3]: 105 µM·h; AUC [4]: 426 µM·h; clearance [6]: 1.3 mL/min/kg
